Assay [1] concerns HSV-1 F. Briefly: Pre- versus post-attachment neutralization assay. The format is cell-based. Conditions: 100 TCID50 HSV-1, 4° C., Vero cells. Here is the method:
The highest antibody and polyvalent human IgG titer, respectively, preventing virus induced cytopathic effect (CPE) in ten individual inoculated cell monolayers to 100% and 50% relative to controls were determined after 72 h incubation at 37° C. and being considered as the endpoint. Standard errors of the mean of three independent experiments were <0.1.
Neutralization titers were determined after 72 h as described in the standard neutralization assay above.

In assay [2] the test system is truncated HSV-1 glycoprotein B (gB) expressed in COS-1 cells. The format is binding.
Assay [3] deals with HSV-1 wild-type strains and gB mutant viruses. Briefly: Mouse protection experiments with gB mutant viruses. To be noted: i.p. 24 hours before. It counts as in vivo, C57BL/6 mice.
In the next assay the test system is gB derived peptides. The format is binding, HSV-1.
Assay [4] concerns HSV-1 F. In words: Post-exposure treatment of NOD/SCID mice with established HSV-1 infection. It counts as in vivo. Here is the method:
Infected animals per group n=7.
Vaginal virus titers of antibody or control treated mice were determined from vaginal irrigations cultured on Vero cell monolayers. Error bars indicate standard deviation.
Anesthetized female nonobese diabetic/severe combined immunodeficient (NOD-SCID) mice (NOD.CB17-Prkdc^scid/J, Charles River Laboratories, Research Models and Services, Sulzfeld, Germany), 6-8 weeks of age, were challenged intravaginally with 20 μl inoculum of 1×10^6 TCID50 HSV-1 F per mouse. Skin glue (Epiglu, Meyer-Haake Medical Innovations, Wehrheim, Germany) was applied onto the vulva to prevent discharge of the virus inoculum. […] Mice were examined daily after viral inoculation for loss of weight, vulvitis/vaginitis (redness, mucopurulent discharge and signs of inflammation) and neurological disease. Mice displaying any of theses symptoms were sacrificed immediately. […] Mice were assessed for infection by determination of virus titers from vaginal irrigations obtained on days 1, 2, 4, 6 and 8 after infection and at the time of death using the endpoint dilution assay on Vero cells. Viral loads in organs (spleen, adrenal gland, lung heart, liver, kidney, spinal cord, and brain) of sacrificed mice were determined after homogenization of organs by titration on Vero cell monolayers as described elsewhere (41). Each test and control group contained 9-10 animals with detectable HSV-1 infection.

Entries after “also recorded” stand apart in the source; their conditions may differ. Like-named read-outs stand apart in the source and are kept apart here.

As for “mAb 2c: murine monoclonal IgG2a antibody specific for glycoprotein B of HSV1 and HSV2; VH SEQ ID NO: 9, VL SEQ ID NO: 10”, in the assay on HSV-1 F [1], the “pre-attachment versus post-attachment neutralization” value was “Equal neutralization efficacy”. Moreover, the Reactivity result in assay [2] (gB(1-470)) was “−”; in assay [2] (gB(1-487)) it was “+”; in assay [2] (gB(1-503)) it was “+”; in assay [2] (gB(1-505)) it was “+”; in assay [2] (gB(1-630)), “+”; in assay [2] (gB(1-720)) it was “+”. The Reactivity entry was “+” in assay [2] (gB(1-904) (full length gB)) and “−” in assay [2] (pSVL, expression vector, negative control). The “protective effect in vivo” value was “ineffective” in assay [3] (mice inoculated with mutants R126 (Y303N), R1375 (R304Q), B4.1 (E305K)) and “effective” in assay [3] (mice inoculated with mutants R1435 (H308Y) or R233 (R328H) or wild-type viruses). For the same substance, the “binding strength to duotope” value in the assay on gB derived peptides (duotope FED-βA-βA-FYGYRE) was “almost saturation of the fluorescence signal intensity”; in the assay with gB derived peptides (duotope YSQFMG-βA-FYGYRE versus peptide 172[…]184), “only slightly increased”. Besides, the “protection from lethal outcome of established infection” value in the assay with HSV-1 F [4] (15 mg/kg i.v. at 24 h, 40 h and 56 h post infection) is reported as “completely protected from the lethal outcome of infection; also recorded: completely prevented lethal outcome of infection”. Also, the “virions in sensory neurons and respective organs” value in the assay with HSV-1 F [4] (one month after infection) is “no virions were detected”.

These data come from patent US9657088B2, “Anti-HSV antibody” (priority 2009, dated 2017).
